Laboratory results taken from paper PMC10041525, “New Dual Inhibitors of Bacterial Topoisomerases with Broad-Spectrum Antibacterial Activity and In Vivo Efficacy against Vancomycin-Intermediate Staphylococcus aureus” (Journal of Medicinal Chemistry, 2023).
In brackets after ≈: the same amount, converted by molar mass. Where two headings read alike, the source gives them in different places.

Legend:
[1] = test system: Haemophilus influenzae (n = 14); test: MIC broth microdilution at IHMA Europe; type: cell-based, H. influenzae; details: for MIC: Haemophilus influenzae, read-out: MIC
P. aeruginosa ATCC 27853 = test system: P. aeruginosa ATCC 27853; set-up: method as in earlier work; details: QC range for P. aeruginosa ATCC 27853, ref CLSI; cited from earlier work
E. faecium (n = 13) = test: MIC broth microdilution at IHMA Europe; type: cell-based; details: for MIC: Enterococcus faecium, read-out: MIC
S. pneumoniae ATCC 49619 = test system: S. pneumoniae ATCC 49619; set-up: method as in earlier work; details: QC range for S. pneumoniae ATCC 49619, ref CLSI; cited from earlier work
S. pneumoniae (n = 12) = test: MIC broth microdilution at IHMA Europe; type: cell-based; details: for MIC: Streptococcus pneumoniae, read-out: MIC
E. faecalis ATCC 29212 = test system: E. faecalis ATCC 29212; set-up: method as in earlier work; details: QC range for E. faecalis ATCC 29212, ref CLSI; cited from earlier work
H. influenzae ATCC 49247 = test system: H. influenzae ATCC 49247; set-up: method as in earlier work; details: QC range for H. influenzae ATCC 49247, ref CLSI; cited from earlier work

Structure (SMILES): C[C@@H](O)[C@H]1C(=O)N2C(C(=O)O)=C(SCCNC=N)C[C@H]12 [Imipenem, imipenem]
- MIC ([1]; H. influenzae IHMA N° 1227715): 1 µg/mL (≈ 3.34 µM)
- MIC ([1]; H. influenzae IHMA N° 1241620): 0.5 µg/mL (≈ 1.67 µM)
- MIC ([1]; H. influenzae IHMA N° 1244149): 0.5 µg/mL (≈ 1.67 µM)
- MIC ([1]; H. influenzae IHMA N° 1249803): 0.25 µg/mL (≈ 0.835 µM)
- MIC ([1]; H. influenzae IHMA N° 1254355): 0.5 µg/mL (≈ 1.67 µM)
- MIC ([1]; H. influenzae IHMA N° 1258580): 0.5 µg/mL (≈ 1.67 µM)
- MIC ([1]; H. influenzae IHMA N° 1262734): 0.5 µg/mL (≈ 1.67 µM)
- MIC ([1]; H. influenzae IHMA N° 1272723): 0.5 µg/mL (≈ 1.67 µM)
- MIC ([1]; H. influenzae IHMA N° 1286846): 0.5 µg/mL (≈ 1.67 µM)
- MIC ([1]; H. influenzae IHMA N° 1337530): 1 µg/mL (≈ 3.34 µM)
- MIC ([1]; H. influenzae IHMA N° 1440085): 0.12 µg/mL (≈ 0.401 µM)
- MIC ([1]; H. influenzae IHMA N° 1479509): 0.5 µg/mL (≈ 1.67 µM)
- MIC ([1]; H. influenzae IHMA N° 1952952): 0.12 µg/mL (≈ 0.401 µM)
- MIC ([1]; H. influenzae IHMA N° 2047461): 0.5 µg/mL (≈ 1.67 µM)
- Cumulative % at MIC ([1]; MIC 0.5 µg/mL): 85.7%
- No. of isolates at MIC ([1]; MIC 0.5 µg/mL): 9
- Cumulative % at MIC ([1]; MIC 1 µg/mL): 100.0%
- No. of isolates at MIC ([1]; MIC 1 µg/mL): 2
- MIC, CLSI Range (P. aeruginosa ATCC 27853): 1 to 4 µg/mL
- MIC (E. faecium (n = 13); E. faecium IHMA N° 1764866): > 32 µg/mL
- MIC (E. faecium (n = 13); E. faecium IHMA N° 1765436): 16 µg/mL (≈ 53.4 µM)
- MIC (E. faecium (n = 13); E. faecium IHMA N° 1765746): > 32 µg/mL
- MIC (E. faecium (n = 13); E. faecium IHMA N° 1893573): > 32 µg/mL
- MIC (E. faecium (n = 13); E. faecium IHMA N° 1893846): > 32 µg/mL
- MIC (E. faecium (n = 13); E. faecium IHMA N° 1893942): > 32 µg/mL
- MIC (E. faecium (n = 13); E. faecium IHMA N° 1894055): > 32 µg/mL
- MIC (E. faecium (n = 13); E. faecium IHMA N° 1897027): > 32 µg/mL
- MIC (E. faecium (n = 13); E. faecium IHMA N° 1897101): > 32 µg/mL
- MIC (E. faecium (n = 13); E. faecium IHMA N° 1904592): > 32 µg/mL
- MIC (E. faecium (n = 13); E. faecium IHMA N° 2075051): > 32 µg/mL
- MIC (E. faecium (n = 13); E. faecium IHMA N° 2077718): > 32 µg/mL
- MIC (E. faecium (n = 13); E. faecium IHMA N° 2083787): > 32 µg/mL
- Cumulative % at MIC (E. faecium (n = 13); MIC […] µg/mL): 7.7%
- No. of isolates at MIC (E. faecium (n = 13); MIC […] µg/mL): 1
- Cumulative % at MIC (E. faecium (n = 13); MIC >32 µg/mL): 100.0%
- No. of isolates at MIC (E. faecium (n = 13); MIC >32 µg/mL): 12
- MIC, CLSI Range (S. pneumoniae ATCC 49619): 0,03 - 0,12 µg/mL
- Cumulative % at MIC (S. pneumoniae (n = 12); MIC 0.06 µg/mL): 25.0%
- No. of isolates at MIC (S. pneumoniae (n = 12); MIC 0.06 µg/mL): 1
- Cumulative % at MIC (S. pneumoniae (n = 12); MIC 1 µg/mL): 100.0%
- No. of isolates at MIC (S. pneumoniae (n = 12); MIC 1 µg/mL): 1
- Cumulative % at MIC (S. pneumoniae (n = 12); MIC ≤0.015 µg/mL): 16.7%
- No. of isolates at MIC (S. pneumoniae (n = 12); MIC ≤0.015 µg/mL): 2
- MIC (S. pneumoniae (n = 12); S. pneumoniae IHMA N° 1775387): 0.25 µg/mL (≈ 0.835 µM)
- MIC (S. pneumoniae (n = 12); S. pneumoniae IHMA N° 1776057): 0.25 µg/mL (≈ 0.835 µM)
- MIC (S. pneumoniae (n = 12); S. pneumoniae IHMA N° 1785617): 0.25 µg/mL (≈ 0.835 µM)
- MIC (S. pneumoniae (n = 12); S. pneumoniae IHMA N° 1800765): ≤ 0.015 µg/mL
- MIC (S. pneumoniae (n = 12); S. pneumoniae IHMA N° 1811259): 0.12 µg/mL (≈ 0.401 µM)
- MIC (S. pneumoniae (n = 12); S. pneumoniae IHMA N° 1831562): ≤ 0.015 µg/mL
- MIC (S. pneumoniae (n = 12); S. pneumoniae IHMA N° 1902609): 0.12 µg/mL (≈ 0.401 µM)
- MIC (S. pneumoniae (n = 12); S. pneumoniae IHMA N° 1979675): 0.25 µg/mL (≈ 0.835 µM)
- MIC (S. pneumoniae (n = 12); S. pneumoniae IHMA N° 1991963): 1 µg/mL (≈ 3.34 µM)
- MIC (S. pneumoniae (n = 12); S. pneumoniae IHMA N° 2057487): 0.12 µg/mL (≈ 0.401 µM)
- MIC (S. pneumoniae (n = 12); S. pneumoniae IHMA N° 2073087): 0.25 µg/mL (≈ 0.835 µM)
- MIC (S. pneumoniae (n = 12); S. pneumoniae IHMA N° 2117109): 0.06 µg/mL (≈ 0.2 µM)
- MIC, CLSI Range (E. faecalis ATCC 29212): 0,5 - 2 µg/mL

Structure (SMILES): C[C@H]1COc2c(N3CCN(C)CC3)c(F)cc3c(=O)c(C(=O)O)cn1c23.C[C@H]1COc2c(N3CCN(C)CC3)c(F)cc3c(=O)c(C(=O)O)cn1c23.O [Levofloxacin, levofloxacin]
- MIC ([1]; H. influenzae IHMA N° 1227715): 0.015 µg/mL
- MIC ([1]; H. influenzae IHMA N° 1241620): ≤ 0.004 µg/mL
- MIC ([1]; H. influenzae IHMA N° 1244149): 0.015 µg/mL
- MIC ([1]; H. influenzae IHMA N° 1249803): 0.015 µg/mL
- MIC ([1]; H. influenzae IHMA N° 1254355): 0.12 µg/mL
- MIC ([1]; H. influenzae IHMA N° 1258580): 0.015 µg/mL
- MIC ([1]; H. influenzae IHMA N° 1262734): 0.015 µg/mL
- MIC ([1]; H. influenzae IHMA N° 1272723): 0.015 µg/mL
- MIC ([1]; H. influenzae IHMA N° 1286846): 0.015 µg/mL
- MIC ([1]; H. influenzae IHMA N° 1337530): 0.015 µg/mL
- MIC ([1]; H. influenzae IHMA N° 1440085): 0.015 µg/mL
- MIC ([1]; H. influenzae IHMA N° 1479509): 0.0015 µg/mL
- MIC ([1]; H. influenzae IHMA N° 1952952): 0.015 µg/mL
- MIC ([1]; H. influenzae IHMA N° 2047461): 0.008 µg/mL
- MIC, CLSI Range (P. aeruginosa ATCC 27853): 0,5 - 4 µg/mL
- MIC (E. faecium (n = 13); E. faecium IHMA N° 1764866): > 32 µg/mL
- MIC (E. faecium (n = 13); E. faecium IHMA N° 1765436): > 32 µg/mL
- MIC (E. faecium (n = 13); E. faecium IHMA N° 1765746): > 32 µg/mL
- MIC (E. faecium (n = 13); E. faecium IHMA N° 1893573): > 32 µg/mL
- MIC (E. faecium (n = 13); E. faecium IHMA N° 1893846): > 32 µg/mL
- MIC (E. faecium (n = 13); E. faecium IHMA N° 1893942): > 32 µg/mL
- MIC (E. faecium (n = 13); E. faecium IHMA N° 1894055): > 32 µg/mL
- MIC (E. faecium (n = 13); E. faecium IHMA N° 1897027): > 32 µg/mL
- MIC (E. faecium (n = 13); E. faecium IHMA N° 1897101): > 32 µg/mL
- MIC (E. faecium (n = 13); E. faecium IHMA N° 1904592): 32 µg/mL
- MIC (E. faecium (n = 13); E. faecium IHMA N° 2075051): > 32 µg/mL
- MIC (E. faecium (n = 13); E. faecium IHMA N° 2077718): > 32 µg/mL
- MIC (E. faecium (n = 13); E. faecium IHMA N° 2083787): 32 µg/mL
- MIC, CLSI Range (S. pneumoniae ATCC 49619): 0,5 - 2 µg/mL
- No. of isolates at MIC (S. pneumoniae (n = 12); MIC 0.5 µg/mL): 5
- MIC (S. pneumoniae (n = 12); S. pneumoniae IHMA N° 1775387): 1 µg/mL
- MIC (S. pneumoniae (n = 12); S. pneumoniae IHMA N° 1776057): 0.5 µg/mL
- MIC (S. pneumoniae (n = 12); S. pneumoniae IHMA N° 1785617): 0.5 µg/mL
- MIC (S. pneumoniae (n = 12); S. pneumoniae IHMA N° 1800765): 1 µg/mL
- MIC (S. pneumoniae (n = 12); S. pneumoniae IHMA N° 1811259): 0.5 µg/mL
- MIC (S. pneumoniae (n = 12); S. pneumoniae IHMA N° 1831562): 1 µg/mL
- MIC (S. pneumoniae (n = 12); S. pneumoniae IHMA N° 1902609): 1 µg/mL
- MIC (S. pneumoniae (n = 12); S. pneumoniae IHMA N° 1979675): 0.5 µg/mL
- MIC (S. pneumoniae (n = 12); S. pneumoniae IHMA N° 1991963): > 32 µg/mL
- MIC (S. pneumoniae (n = 12); S. pneumoniae IHMA N° 2057487): 1 µg/mL
- MIC (S. pneumoniae (n = 12); S. pneumoniae IHMA N° 2073087): 1 µg/mL
- MIC (S. pneumoniae (n = 12); S. pneumoniae IHMA N° 2117109): 0.5 µg/mL
- MIC, CLSI Range (H. influenzae ATCC 49247): 0,008 - 0,03 µg/mL
- MIC, CLSI Range (E. faecalis ATCC 29212): 0,25 - 2 µg/mL
